Legend:
HBV = experiment: Determination of HBV DNA from the supernatants of HepAD38 cells (anti-HBV activity); type: cell-based, hepatitis B virus; conditions: Hepatitis B virus, 144 h; HBV DNA in HepAD38 supernatant at day 6; read-out: Cell Activity (EC50)
Experimental: Determination of HBV DNA from the Supernatants of HepAD38 Cells
The anti-HBV activity was analysed in the stable transfected cell line HepAD38, which has been described to secrete high levels of HBV virion particles (Ladner et al., 1997). In brief, HepAD38 cells were cultured at 37° C. at 5% CO2 and 95% humidity in 200 μl maintenance medium, which was Dulbecco's modified Eagle's medium/Nutrient Mixture F-12 (Gibco, Karlsruhe), 10% fetal bovine serum (PAN Biotech Aidenbach) supplemented with 50 μg/ml penicillin/streptomycin (Gibco, Karlsruhe), 2 mM L-glutamine (PAN Biotech, Aidenbach), 400 μg/ml G418 (AppliChem, Darmstadt) and 0.3 μg/ml tetracycline. Cells were subcultured once a week in a 1:5 ratio, but were usually not passaged more than ten times. For the assay 60,000 cells were seeded in maintenance medium without any tetracycline into each well of a 96-well plate and treated with serial half-log dilutions of test compound. To minimize edge effects the outer 36 wells of the plate were not used but were filled with assay medium. On each assay plate six wells for the virus control (untreated HepAD38 cells) and six wells for the cell control (HepAD38 cells treated with 0.3 μg/ml tetracycline) were allocated, respectively. In addition, one plate set with reference inhibitors like BAY 41-4109, entecavir, and lamivudine instead of screening compounds were prepared in each experiment. In general, experiments were performed thrice in triplicates. At day 6 HBV DNA from 100 μl filtrated cell culture supernatant (AcroPrep Advance 96 Filter Plate, […] Supor membran, PALL GmbH, Dreieich) was automatically purified on the MagNa Pure LC instrument using the MagNA Pure 96 DNA and Viral NA Small Volume Kit (Roche Diagnostics, Mannheim) according to the instructions of the manufacturer. EC50 values were calculated from relative copy numbers of HBV DNA. In brief, 5 μl of the 100 μl eluate containing HBV DNA were subjected to PCR LC480 Probes Master Kit (Roche) together with 1 μM antisense primer […], 0.5 μM sense primer […], 0.3 μM hybprobes […]-FL and LC640-[…]-PH (TIBMolBiol, Berlin) to a final volume of 12.5 μl. The PCR was performed on the Light Cycler 480 real time system (Roche Diagnostics, Mannheim) using the following protocol: Pre-incubation for 1 min at 95° C., amplification: 40 cycles×(10 sec at 95° C., 50 sec at 60° C., 1 sec at 70° C.), cooling for 10 sec at 40° C. Viral load was quantitated against known standards using HBV plasmid DNA of pCH-9/3091 (Nassal et al., 1990, Cell 63: 1357-1363) and the LightCycler 480 SW 1.5 software (Roche Diagnostics, Mannheim) and EC50 values were calculated using non-linear regression with GraphPad Prism 6 (GraphPad Software Inc., La Jolla, USA).

HBV core protein = HBV core protein (UniProt P03146); type: biochemical; conditions: read-out: Assembly Activity (IC50); BODIPY-FL labelled core protein, assembly started with NaCl, read after 6 min
HBV core protein, sequence (P03146 whole entry, looked up): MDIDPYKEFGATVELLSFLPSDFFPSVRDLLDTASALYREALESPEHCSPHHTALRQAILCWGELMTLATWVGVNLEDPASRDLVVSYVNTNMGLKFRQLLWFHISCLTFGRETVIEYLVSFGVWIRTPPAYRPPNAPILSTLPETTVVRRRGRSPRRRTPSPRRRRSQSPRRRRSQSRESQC
Experimental: Biochemical Capsid Assembly Assay
The screening for assembly effector activity was done based on a fluorescence quenching assay published by Zlotnick et al. (2007). The C-terminal truncated core protein containing 149 amino acids of the N-terminal assembly domain was fused to a unique cysteine residue at position 150 and was expressed in E. coli using the pET expression system (Merck Chemicals, Darmstadt). Purification of core dimer protein was performed using a sequence of size exclusion chromatography steps. In brief, the cell pellet from 1 L BL21 (DE3) Rosetta2 culture expressing the coding sequence of core protein cloned NdeI/XhoI into expression plasmid pET21b was treated for 1 h on ice with a native lysis buffer (Qproteome Bacterial Protein Prep Kit; Qiagen, Hilden). After a centrifugation step the supernatant was precipitated during 2 h stirring on ice with 0.23 g/ml of solid ammonium sulfate. Following further centrifugation the resulting pellet was resolved in buffer A (100 mM Tris, pH 7.5; 100 mM NaCl; 2 mM DTT) and was subsequently loaded onto a buffer A equilibrated CaptoCore 700 column (GE HealthCare, Frankfurt). The column flow through containing the assembled HBV capsid was dialyzed against buffer N (50 mM NaHCO3 pH 9.6; 5 mM DTT) before urea was added to a final concentration of 3M to dissociate the capsid into core dimers for 1.5 h on ice. The protein solution was then loaded onto a 1 L Sephacryl S300 column. After elution with buffer N core dimer containing fractions were identified by SDS-PAGE and subsequently pooled and dialyzed against 50 mM HEPES pH 7.5; 5 mM DTT. To improve the assembly capacity of the purified core dimers a second round of assembly and disassembly starting with the addition of 5 M NaCl and including the size exclusion chromatography steps described above was performed. From the last chromatography step core dimer containing fractions were pooled and stored in aliquots at concentrations between 1.5 to 2.0 mg/ml at −80° C.
Immediately before labelling the core protein was reduced by adding freshly prepared DTT in a final concentration of 20 mM. After 40 min incubation on ice storage buffer and DTT was removed using a Sephadex G-25 column (GE HealthCare, Frankfurt) and 50 mM HEPES, pH 7.5. For labelling 1.6 mg/ml core protein was incubated at 4° C. and darkness overnight with BODIPY-FL maleimide (Invitrogen, Karlsruhe) in a final concentration of 1 mM. After labelling the free dye was removed by an additional desalting step using a Sephadex G-25 column. Labelled core dimers were stored in aliquots at 4° C. In the dimeric state the fluorescence signal of the labelled core protein is high and is quenched during the assembly of the core dimers to high molecular capsid structures. The screening assay was performed in black 384 well microtiter plates in a total assay volume of 10 μl using 50 mM HEPES pH 7.5 and 1.0 to 2.0 μM labelled core protein. Each screening compound was added in 8 different concentrations using a 0.5 log-unit serial dilution starting at a final concentration of 100 μM, 31.6 μM or 10 μM. In any case the DMSO concentration over the entire microtiter plate was 0.5%. The assembly reaction was started by the injection of NaCl to a final concentration of […] which induces the assembly process to approximately 25% of the maximal quenched signal. 6 min after starting the reaction the fluorescence signal was measured using a Clariostar plate reader (BMG Labtech, Ortenberg) with an excitation of 477 nm and an emission of 525 nm. As 100% and 0% assembly control HEPES buffer containing 2.5 M and 0 M NaCl was used. Experiments were performed thrice in triplicates. EC50 values were calculated by non-linear regression analysis using the Graph Pad Prism 6 software (GraphPad Software, La Jolla, USA).

Row | Structure (SMILES) | EC50 (HBV) [µM] | IC50 (HBV core protein) [µM]
1 | CN(C)c1nc2c(s1)CN(C(=O)c1cc3c(F)ccc(F)c3[nH]1)CC2 [Example 133, 5-(4,7-difluoro-1H-indole-2-carbonyl)-N,N-dimethyl-4H,5H,6H,7H-[1,3]thiazolo[5,4-c]pyridin-2-amine] | 1 to 10 | < 100
2 | CC(O)CNc1nc2c(s1)CN(C(=O)c1cc3c(Cl)cc(F)cc3[nH]1)CC2 (stereo not drawn) [Example 142, 1-{[5-(4-chloro-6-fluoro-1H-indole-2-carbonyl)-4H,5H,6H,7H-[1,3]thiazolo[5,4-c]pyridin-2-yl]amino}propan-2-ol] | < 1 | < 5
3 | O=C(c1cc2c(F)ccc(F)c2[nH]1)N1CCc2nc(NC3CCOC3)sc2C1 (stereo not drawn) [Example 132, 5-(4,7-difluoro-1H-indole-2-carbonyl)-N-(oxolan-3-yl)-4H,5H,6H,7H-[1,3]thiazolo[5,4-c]pyridin-2-amine] | < 1 | < 5
4 | O=C(c1cc2ccccc2[nH]1)N1CCc2nc(NCC3CNCCO3)sc2C1 (stereo not drawn) [Example 260, 5-(1H-indole-2-carbonyl)-N—[(morpholin-2-yl)methyl]-4H,5H,6H,7H-[1,3]thiazolo[5,4-c]pyridin-2-amine] | 1 to 10 | < 5
5 | CN(CC1CCOC1)c1nc2c(s1)CN(C(=O)c1cc3ccccc3[nH]1)CC2 (stereo not drawn) [Example 110, 5-(1H-indole-2-carbonyl)-N-methyl-N-[(oxolan-3-yl)methyl]-4H,5H,6H,7H-[1,3]thiazolo[5,4-c]pyridin-2-amine] | 1 to 10 | < 100
6 | CC(=O)N1CCC(CNc2nc3c(s2)CN(C(=O)c2cc4ccccc4[nH]2)CC3)C1 (stereo not drawn) [Example 391, 1-[3-({[5-(1H-indole-2-carbonyl)-4H,5H,6H,7H-[1,3]thiazolo[5,4-c]pyridin-2-yl]amino}methyl)pyrrolidin-1-yl]ethan-1-one] | < 1 | < 5
7 | C#Cc1cccc2[nH]c(C(=O)N3CCc4nc(N)sc4C3)cc12 [Example 14, 5-(4-ethynyl-1H-indole-2-carbonyl)-4H,5H,6H,7H-[1,3]thiazolo[5,4-c]pyridin-2-amine] | 1 to 10 | < 100
8 | Nc1nc2c(s1)CN(C(=O)c1cc3c(CO)cccc3[nH]1)CC2 [Example 9, (2-{2-amino-4H,5H,6H,7H-[1,3]thiazolo[5,4-c]pyridine-5-carbonyl}-1H-indol-4-yl)methanol] | 1 to 10 | 5 to 10
9 | O=C(c1cc2ccc(Cl)cc2[nH]1)N1CCc2nc(NC3(CO)CCC3)sc2C1 [Example 299, (1-{[5-(6-chloro-1H-indole-2-carbonyl)-4H,5H,6H,7H-[1,3]thiazolo[5,4-c]pyridin-2-yl]amino}cyclobutyl)methanol] | < 1 | < 5
10 | O=C(c1cc2ccccc2[nH]1)N1CCc2nc(NCC3CCCOC3)sc2C1 (stereo not drawn) [Example 270, 5-(1H-indole-2-carbonyl)-N-[(oxan-3-yl)methyl]-4H,5H,6H,7H-[1,3]thiazolo[5,4-c]pyridin-2-amine] | < 1 | < 5
11 | CC(C)(C)CC(=O)Nc1nc2c(s1)CN(C(=O)c1cc3ccccc3[nH]1)CC2 [Example 26, N-[5-(1H-indole-2-carbonyl)-4H,5H,6H,7H-[1,3]thiazolo[5,4-c]pyridin-2-yl]-3,3-dimethylbutanamide] | < 1 | 5 to 10
12 | O=C(c1cc2ccccc2[nH]1)N1CCc2nc(NCC3(O)COC3)sc2C1 [Example 44, 3-({[5-(1H-indole-2-carbonyl)-4H,5H,6H,7H-[1,3]thiazolo[5,4-c]pyridin-2-yl]amino}methyl)oxetan-3-ol] | < 1 | < 5
13 | CCc1cc(F)cc2[nH]c(C(=O)N3CCc4nc(NCC5(CO)CC5)sc4C3)cc12 [Example 248, [1-({[5-(4-ethyl-6-fluoro-1H-indole-2-carbonyl)-4H,5H,6H,7H-[1,3]thiazolo[5,4-c]pyridin-2-yl]amino}methyl)cyclopropyl]methanol] | < 1 | < 5
14 | Cc1cc(F)cc2[nH]c(C(=O)N3CCc4nc(NC5(CO)CCC5)sc4C3)cc12 [Example 298, (1-{[5-(6-fluoro-4-methyl-1H-indole-2-carbonyl)-4H,5H,6H,7H-[1,3]thiazolo[5,4-c]pyridin-2-yl]amino}cyclobutyl)methanol] | < 1 | < 5
15 | CC1(C(=O)Nc2nc3c(s2)CN(C(=O)c2cc4c(Cl)cc(F)cc4[nH]2)CC3)CC1 [Example 305, N-[5-(4-chloro-6-fluoro-1H-indole-2-carbonyl)-4H,5H,6H,7H-[1,3]thiazolo[5,4-c]pyridin-2-yl]-1-methylcyclopropane-1-carboxamide] | < 1 | –
16 | COCC1(Nc2nc3c(s2)CN(C(=O)c2cc4ccccc4[nH]2)CC3)CCC1 [Example 347, 5-(1H-indole-2-carbonyl)-N-[1-(methoxymethyl)cyclobutyl]-4H,5H,6H,7H-[1,3]thiazolo[5,4-c]pyridin-2-amine] | < 1 | –
17 | CC(C)c1cccc2[nH]c(C(=O)N3CCc4nc(NCC5(O)CCC5)sc4C3)cc12 [Example 368, 1-[({5-[4-(propan-2-yl)-1H-indole-2-carbonyl]-4H,5H,6H,7H-[1,3]thiazolo[5,4-c]pyridin-2-yl}amino)methyl]cyclobutan-1-ol] | < 1 | –
18 | O=C(c1cc2ccccc2[nH]1)N1CCc2nc(NC34CC(C3)C4)sc2C1 [Example 431, N-{bicyclo[1.1.1]pentan-1-yl}-5-(1H-indole-2-carbonyl)-4H,5H,6H,7H-[1,3]thiazolo[5,4-c]pyridin-2-amine] | < 1 | –
19 | O=C(c1cc2c(Cl)cc(F)cc2[nH]1)N1CCc2nc(N[C@H]3CC[C@@H](O)CC3)sc2C1 [Example 343, (1s,4s)-4-{[5-(4-chloro-6-fluoro-1H-indole-2-carbonyl)-4H,5H,6H,7H-[1,3]thiazolo[5,4-c]pyridin-2-yl]amino}cyclohexan-1-ol] | < 1 | –

Source: patent US11267825B2 (AICURIS GMBH & CO. KG, priority 2017, dated 2022)
